{"source": "paper PMC12586182", "about": "(Frontiers in Oncology, 2025)", "test_in_all_cases": "Kinase panel profiling at 1 µmol/L (mobility shift assay, Carna)", "type_in_all_cases": "biochemical", "conditions_in_all_cases": "1 µmol/L of BTK inhibitor", "key": {"[1]": {"target": "T1, TYK2 (Homo sapiens, UniProt P29597)", "T1 construct": "purchased Carna Biosciences", "T1 sequence (P29597 whole entry)": "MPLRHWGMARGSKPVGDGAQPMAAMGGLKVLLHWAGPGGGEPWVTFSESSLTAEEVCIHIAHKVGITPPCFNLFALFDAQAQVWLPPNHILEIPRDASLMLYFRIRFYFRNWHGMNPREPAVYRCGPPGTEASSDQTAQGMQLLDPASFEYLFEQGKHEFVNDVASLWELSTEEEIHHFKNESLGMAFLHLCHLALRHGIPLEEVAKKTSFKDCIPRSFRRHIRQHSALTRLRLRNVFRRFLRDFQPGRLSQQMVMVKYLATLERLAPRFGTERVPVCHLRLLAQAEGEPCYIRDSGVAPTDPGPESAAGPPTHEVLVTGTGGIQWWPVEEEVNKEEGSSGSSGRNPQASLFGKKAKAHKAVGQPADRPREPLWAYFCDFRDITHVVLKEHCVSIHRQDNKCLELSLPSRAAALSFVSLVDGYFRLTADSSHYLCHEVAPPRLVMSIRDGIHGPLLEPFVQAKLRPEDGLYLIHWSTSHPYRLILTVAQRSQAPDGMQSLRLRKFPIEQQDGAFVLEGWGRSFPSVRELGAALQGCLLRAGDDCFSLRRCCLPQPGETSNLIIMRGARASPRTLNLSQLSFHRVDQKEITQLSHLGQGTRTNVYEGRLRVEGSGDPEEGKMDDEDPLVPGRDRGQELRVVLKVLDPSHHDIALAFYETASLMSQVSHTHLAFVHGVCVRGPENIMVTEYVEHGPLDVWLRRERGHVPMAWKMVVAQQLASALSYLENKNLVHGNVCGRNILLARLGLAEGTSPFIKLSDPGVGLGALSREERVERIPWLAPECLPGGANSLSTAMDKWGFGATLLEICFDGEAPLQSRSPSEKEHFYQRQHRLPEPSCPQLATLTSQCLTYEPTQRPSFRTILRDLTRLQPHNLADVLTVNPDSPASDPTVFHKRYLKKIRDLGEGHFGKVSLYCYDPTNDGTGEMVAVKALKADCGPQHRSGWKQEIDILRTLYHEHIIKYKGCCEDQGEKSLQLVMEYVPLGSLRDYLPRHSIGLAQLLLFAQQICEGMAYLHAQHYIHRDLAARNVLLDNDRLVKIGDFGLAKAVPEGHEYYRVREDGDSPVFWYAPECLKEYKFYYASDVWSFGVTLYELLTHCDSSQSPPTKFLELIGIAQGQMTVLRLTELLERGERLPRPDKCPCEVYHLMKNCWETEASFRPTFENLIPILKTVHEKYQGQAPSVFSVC"}, "[2]": {"target": "T2, CDC2/CycB1 (Homo sapiens, UniProt P06493)", "T2 construct": "purchased Carna Biosciences", "T2 sequence (P06493 whole entry)": "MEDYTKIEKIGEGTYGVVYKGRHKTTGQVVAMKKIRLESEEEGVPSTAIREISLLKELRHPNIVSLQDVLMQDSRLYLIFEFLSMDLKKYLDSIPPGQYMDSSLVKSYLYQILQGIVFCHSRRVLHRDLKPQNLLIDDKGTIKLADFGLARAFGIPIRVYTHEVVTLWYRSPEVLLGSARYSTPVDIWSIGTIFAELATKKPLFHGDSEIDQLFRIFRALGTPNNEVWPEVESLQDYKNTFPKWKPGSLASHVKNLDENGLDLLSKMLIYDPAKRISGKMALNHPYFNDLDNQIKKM", "T2 sequence (P14635 whole entry partner)": "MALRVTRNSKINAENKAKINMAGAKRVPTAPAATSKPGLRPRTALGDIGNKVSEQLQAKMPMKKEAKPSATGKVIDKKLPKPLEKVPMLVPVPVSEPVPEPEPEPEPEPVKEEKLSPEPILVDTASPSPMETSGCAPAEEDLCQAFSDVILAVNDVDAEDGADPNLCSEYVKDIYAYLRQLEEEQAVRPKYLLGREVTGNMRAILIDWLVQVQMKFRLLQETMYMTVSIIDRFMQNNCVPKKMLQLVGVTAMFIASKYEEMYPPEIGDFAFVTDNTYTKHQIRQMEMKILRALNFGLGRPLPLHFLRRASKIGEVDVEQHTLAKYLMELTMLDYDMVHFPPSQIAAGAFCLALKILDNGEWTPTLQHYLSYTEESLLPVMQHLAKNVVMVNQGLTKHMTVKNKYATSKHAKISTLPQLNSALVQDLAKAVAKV"}, "[3]": {"target": "T3, EPHB1 (Homo sapiens, UniProt P54762)", "T3 construct": "purchased Carna Biosciences", "T3 sequence (P54762 18-984)": "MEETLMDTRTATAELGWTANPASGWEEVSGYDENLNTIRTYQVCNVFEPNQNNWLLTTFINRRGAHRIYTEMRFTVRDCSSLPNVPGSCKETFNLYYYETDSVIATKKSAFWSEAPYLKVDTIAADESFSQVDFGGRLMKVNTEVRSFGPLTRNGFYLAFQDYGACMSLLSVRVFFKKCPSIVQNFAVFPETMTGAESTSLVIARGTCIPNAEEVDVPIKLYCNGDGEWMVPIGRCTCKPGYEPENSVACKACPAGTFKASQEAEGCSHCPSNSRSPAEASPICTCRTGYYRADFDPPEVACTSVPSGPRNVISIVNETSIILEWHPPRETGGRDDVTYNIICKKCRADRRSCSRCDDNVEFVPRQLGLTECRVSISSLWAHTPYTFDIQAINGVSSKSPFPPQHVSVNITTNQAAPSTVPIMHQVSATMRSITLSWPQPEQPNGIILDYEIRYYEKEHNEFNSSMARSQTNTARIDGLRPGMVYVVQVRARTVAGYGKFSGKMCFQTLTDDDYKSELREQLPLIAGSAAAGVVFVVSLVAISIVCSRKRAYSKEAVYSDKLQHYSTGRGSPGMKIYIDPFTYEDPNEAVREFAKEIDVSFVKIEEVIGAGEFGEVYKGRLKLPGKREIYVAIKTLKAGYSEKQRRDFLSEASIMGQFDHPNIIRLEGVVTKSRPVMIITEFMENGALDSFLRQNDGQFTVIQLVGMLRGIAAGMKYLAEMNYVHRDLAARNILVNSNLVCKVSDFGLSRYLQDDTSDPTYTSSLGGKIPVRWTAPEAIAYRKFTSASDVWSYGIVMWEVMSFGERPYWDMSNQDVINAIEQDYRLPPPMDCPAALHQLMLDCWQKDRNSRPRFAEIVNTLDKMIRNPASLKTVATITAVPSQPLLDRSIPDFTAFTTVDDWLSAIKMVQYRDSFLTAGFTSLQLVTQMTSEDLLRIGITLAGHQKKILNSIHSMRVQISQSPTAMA"}, "[4]": {"target": "T4, RET (Homo sapiens, UniProt P07949)", "T4 construct": "purchased Carna Biosciences", "T4 sequence (P07949 29-1114)": "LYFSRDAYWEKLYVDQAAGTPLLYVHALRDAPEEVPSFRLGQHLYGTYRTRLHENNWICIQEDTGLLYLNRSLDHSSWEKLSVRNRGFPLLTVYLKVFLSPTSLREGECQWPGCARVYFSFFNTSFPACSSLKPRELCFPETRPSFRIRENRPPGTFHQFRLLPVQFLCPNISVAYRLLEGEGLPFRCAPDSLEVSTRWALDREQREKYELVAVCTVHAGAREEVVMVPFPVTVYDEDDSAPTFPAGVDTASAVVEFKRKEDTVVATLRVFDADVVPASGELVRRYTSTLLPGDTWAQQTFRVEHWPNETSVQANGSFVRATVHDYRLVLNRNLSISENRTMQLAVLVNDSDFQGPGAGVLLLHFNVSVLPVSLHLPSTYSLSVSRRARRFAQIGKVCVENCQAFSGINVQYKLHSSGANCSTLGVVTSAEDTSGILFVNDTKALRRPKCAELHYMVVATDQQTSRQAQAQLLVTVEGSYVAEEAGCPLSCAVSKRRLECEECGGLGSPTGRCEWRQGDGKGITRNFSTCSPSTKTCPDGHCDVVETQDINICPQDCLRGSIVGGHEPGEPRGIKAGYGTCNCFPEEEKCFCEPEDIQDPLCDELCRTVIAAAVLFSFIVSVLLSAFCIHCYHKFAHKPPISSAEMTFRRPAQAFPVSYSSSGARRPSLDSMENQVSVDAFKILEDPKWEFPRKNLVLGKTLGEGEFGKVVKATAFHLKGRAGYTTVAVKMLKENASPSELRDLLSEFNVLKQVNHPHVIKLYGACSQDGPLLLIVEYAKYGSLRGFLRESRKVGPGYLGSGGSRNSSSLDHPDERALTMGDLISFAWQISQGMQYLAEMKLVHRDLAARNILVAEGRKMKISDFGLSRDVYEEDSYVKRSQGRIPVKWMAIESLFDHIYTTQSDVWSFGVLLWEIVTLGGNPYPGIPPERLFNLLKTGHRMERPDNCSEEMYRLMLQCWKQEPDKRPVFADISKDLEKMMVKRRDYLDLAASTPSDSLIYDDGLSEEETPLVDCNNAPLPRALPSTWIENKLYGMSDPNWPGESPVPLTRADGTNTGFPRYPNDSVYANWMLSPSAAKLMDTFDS"}, "[5]": {"target": "T5, TSSK3 (Homo sapiens, UniProt Q96PN8)", "T5 construct": "purchased Carna Biosciences", "T5 sequence (Q96PN8 1-268)": "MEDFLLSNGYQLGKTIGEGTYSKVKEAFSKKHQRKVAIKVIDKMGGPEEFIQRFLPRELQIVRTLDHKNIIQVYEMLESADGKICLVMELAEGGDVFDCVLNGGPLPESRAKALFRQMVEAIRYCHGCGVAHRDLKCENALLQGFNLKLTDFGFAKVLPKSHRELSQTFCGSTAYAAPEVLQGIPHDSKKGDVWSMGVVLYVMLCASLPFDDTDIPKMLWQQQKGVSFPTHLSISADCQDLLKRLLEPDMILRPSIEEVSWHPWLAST"}, "[6]": {"target": "T6, AurA (Homo sapiens, UniProt O14965)", "T6 construct": "purchased Carna Biosciences", "T6 sequence (O14965 1-403)": "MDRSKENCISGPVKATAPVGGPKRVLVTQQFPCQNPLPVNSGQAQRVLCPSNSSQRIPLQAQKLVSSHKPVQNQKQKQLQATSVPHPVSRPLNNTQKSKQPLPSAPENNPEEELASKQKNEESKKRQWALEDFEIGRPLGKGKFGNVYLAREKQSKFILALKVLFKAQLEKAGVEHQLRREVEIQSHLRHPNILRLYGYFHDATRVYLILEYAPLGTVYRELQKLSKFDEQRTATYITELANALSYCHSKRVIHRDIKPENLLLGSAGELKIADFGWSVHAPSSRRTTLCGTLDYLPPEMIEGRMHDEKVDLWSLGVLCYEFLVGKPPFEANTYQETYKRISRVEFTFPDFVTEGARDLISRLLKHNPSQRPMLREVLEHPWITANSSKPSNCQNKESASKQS"}, "[7]": {"target": "T7, MUSK (Homo sapiens, UniProt O15146)", "T7 construct": "purchased Carna Biosciences", "T7 sequence (O15146 24-869)": "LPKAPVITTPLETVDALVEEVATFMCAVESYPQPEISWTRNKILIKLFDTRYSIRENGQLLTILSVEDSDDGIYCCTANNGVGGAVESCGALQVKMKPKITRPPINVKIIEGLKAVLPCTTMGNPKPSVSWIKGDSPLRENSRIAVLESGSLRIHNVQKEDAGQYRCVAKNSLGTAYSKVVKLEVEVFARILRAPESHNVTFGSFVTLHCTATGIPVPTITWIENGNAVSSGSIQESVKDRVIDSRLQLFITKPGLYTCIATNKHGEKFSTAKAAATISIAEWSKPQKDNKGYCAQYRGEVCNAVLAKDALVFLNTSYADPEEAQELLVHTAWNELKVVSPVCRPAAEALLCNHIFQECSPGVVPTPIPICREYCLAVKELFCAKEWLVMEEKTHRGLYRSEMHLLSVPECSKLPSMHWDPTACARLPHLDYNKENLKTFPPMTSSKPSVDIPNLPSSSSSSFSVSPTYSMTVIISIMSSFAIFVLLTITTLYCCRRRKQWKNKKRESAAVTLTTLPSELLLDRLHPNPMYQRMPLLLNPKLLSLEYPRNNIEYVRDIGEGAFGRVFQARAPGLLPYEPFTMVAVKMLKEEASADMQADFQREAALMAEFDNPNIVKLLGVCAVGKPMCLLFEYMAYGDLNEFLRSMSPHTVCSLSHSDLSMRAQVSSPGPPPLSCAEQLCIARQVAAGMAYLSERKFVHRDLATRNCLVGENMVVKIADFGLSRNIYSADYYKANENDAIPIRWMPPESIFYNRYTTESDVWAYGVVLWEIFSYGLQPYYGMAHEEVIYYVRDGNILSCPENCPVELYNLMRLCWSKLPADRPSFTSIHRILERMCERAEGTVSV"}, "[8]": {"target": "T8, INSR (Homo sapiens, UniProt P06213)", "T8 construct": "purchased Carna Biosciences"}, "[9]": {"target": "T9, EPHA2 (Homo sapiens, UniProt P29317)", "T9 construct": "purchased Carna Biosciences", "T9 sequence (P29317 24-976)": "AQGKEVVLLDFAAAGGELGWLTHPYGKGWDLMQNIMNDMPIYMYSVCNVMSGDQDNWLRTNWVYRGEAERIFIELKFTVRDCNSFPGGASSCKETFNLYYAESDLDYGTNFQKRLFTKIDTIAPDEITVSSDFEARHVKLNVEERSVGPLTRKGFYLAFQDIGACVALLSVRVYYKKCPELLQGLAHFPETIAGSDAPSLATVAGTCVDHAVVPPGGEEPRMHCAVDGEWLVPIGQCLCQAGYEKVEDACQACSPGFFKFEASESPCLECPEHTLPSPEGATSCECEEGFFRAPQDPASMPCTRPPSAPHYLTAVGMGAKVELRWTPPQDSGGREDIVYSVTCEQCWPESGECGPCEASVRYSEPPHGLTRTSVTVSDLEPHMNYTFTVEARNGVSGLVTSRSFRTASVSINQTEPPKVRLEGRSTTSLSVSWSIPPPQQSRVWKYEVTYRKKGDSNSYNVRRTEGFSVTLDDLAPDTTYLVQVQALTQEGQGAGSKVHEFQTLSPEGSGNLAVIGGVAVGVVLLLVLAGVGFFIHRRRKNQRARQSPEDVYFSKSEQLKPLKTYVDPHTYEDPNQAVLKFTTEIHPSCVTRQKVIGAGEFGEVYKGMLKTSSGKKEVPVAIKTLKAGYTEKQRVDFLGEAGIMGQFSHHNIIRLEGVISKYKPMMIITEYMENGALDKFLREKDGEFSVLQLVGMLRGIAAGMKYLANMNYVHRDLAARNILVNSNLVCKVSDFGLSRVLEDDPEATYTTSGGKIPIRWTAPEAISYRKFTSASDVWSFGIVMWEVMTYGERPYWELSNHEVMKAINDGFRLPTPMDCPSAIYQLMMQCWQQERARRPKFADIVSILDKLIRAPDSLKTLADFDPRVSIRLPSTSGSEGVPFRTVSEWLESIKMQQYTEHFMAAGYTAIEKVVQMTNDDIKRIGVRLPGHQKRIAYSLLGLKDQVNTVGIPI"}, "[10]": {"target": "T10, MNK2 (Homo sapiens, UniProt Q9HBH9)", "T10 construct": "purchased Carna Biosciences", "T10 sequence (Q9HBH9 whole entry)": "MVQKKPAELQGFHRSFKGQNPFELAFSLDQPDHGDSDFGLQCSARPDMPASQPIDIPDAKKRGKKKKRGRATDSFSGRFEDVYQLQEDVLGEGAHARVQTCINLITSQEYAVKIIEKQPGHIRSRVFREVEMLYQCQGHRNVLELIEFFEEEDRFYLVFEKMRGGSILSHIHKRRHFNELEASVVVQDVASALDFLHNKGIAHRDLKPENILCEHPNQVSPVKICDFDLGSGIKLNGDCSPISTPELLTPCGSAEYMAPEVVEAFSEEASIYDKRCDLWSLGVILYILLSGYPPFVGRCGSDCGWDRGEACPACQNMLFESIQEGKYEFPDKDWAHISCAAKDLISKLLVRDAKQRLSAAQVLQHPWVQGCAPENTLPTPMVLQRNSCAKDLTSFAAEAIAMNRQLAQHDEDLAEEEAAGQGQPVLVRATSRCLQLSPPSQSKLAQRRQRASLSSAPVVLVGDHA"}, "[11]": {"target": "T11, p70S6K (Homo sapiens, UniProt P23443)", "T11 construct": "purchased Carna Biosciences", "T11 sequence (P23443 whole entry)": "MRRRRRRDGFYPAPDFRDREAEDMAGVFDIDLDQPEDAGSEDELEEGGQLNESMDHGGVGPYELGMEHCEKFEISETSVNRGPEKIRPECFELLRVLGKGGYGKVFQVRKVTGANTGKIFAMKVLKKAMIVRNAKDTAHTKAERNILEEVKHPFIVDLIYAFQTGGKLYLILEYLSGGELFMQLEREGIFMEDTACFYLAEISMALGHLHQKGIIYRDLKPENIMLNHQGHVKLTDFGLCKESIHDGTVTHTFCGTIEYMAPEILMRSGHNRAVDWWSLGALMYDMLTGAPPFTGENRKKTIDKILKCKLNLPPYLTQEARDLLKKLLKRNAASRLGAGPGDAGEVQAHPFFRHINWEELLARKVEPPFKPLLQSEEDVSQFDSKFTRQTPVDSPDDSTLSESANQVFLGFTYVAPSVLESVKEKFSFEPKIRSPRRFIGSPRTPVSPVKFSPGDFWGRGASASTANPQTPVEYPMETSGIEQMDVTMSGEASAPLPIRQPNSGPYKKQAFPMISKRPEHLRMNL"}}, "data": [{"smiles": "O=C(c1ccc(Oc2ccccc2)cc1Cl)c1c[nH]c2ncnc(N[C@@H]3CC[C@@H](CO)OC3)c12", "note": "[nemtabrutinib]", "values": [{"measurement": "Percentage inhibition of kinase enzyme activity", "setting": "[1]", "result": 10.79, "unit": "%"}, {"measurement": "Percentage inhibition of kinase enzyme activity", "setting": "[2]", "result": -7.65, "unit": "%"}, {"measurement": "Percentage inhibition of kinase enzyme activity", "setting": "[3]", "result": 63.64, "unit": "%"}, {"measurement": "Percentage inhibition of kinase enzyme activity", "setting": "[4]", "result": 98.99, "unit": "%"}, {"measurement": "Percentage inhibition of kinase enzyme activity", "setting": "[5]", "result": 2.56, "unit": "%"}, {"measurement": "Percentage inhibition of kinase enzyme activity", "setting": "[6]", "result": 77.82, "unit": "%"}, {"measurement": "Percentage inhibition of kinase enzyme activity", "setting": "[7]", "result": 100.11, "unit": "%"}, {"measurement": "Percentage inhibition of kinase enzyme activity", "setting": "[8]", "result": 95.91, "unit": "%"}, {"measurement": "Percentage inhibition of kinase enzyme activity", "setting": "[9]", "result": 33.13, "unit": "%"}, {"measurement": "Percentage inhibition of kinase enzyme activity", "setting": "[10]", "result": 56.12, "unit": "%"}, {"measurement": "Percentage inhibition of kinase enzyme activity", "setting": "[11]", "result": 4.51, "unit": "%"}]}, {"smiles": "CC#CC(=O)N1CCC[C@H]1c1nc(-c2ccc(C(=O)Nc3ccccn3)cc2)c2c(N)nccn12", "note": "[acalabrutinib]", "values": [{"measurement": "Percentage inhibition of kinase enzyme activity", "setting": "[1]", "result": 12.80, "unit": "%"}, {"measurement": "Percentage inhibition of kinase enzyme activity", "setting": "[2]", "result": -0.40, "unit": "%"}, {"measurement": "Percentage inhibition of kinase enzyme activity", "setting": "[3]", "result": -1.40, "unit": "%"}, {"measurement": "Percentage inhibition of kinase enzyme activity", "setting": "[4]", "result": 13.72, "unit": "%"}, {"measurement": "Percentage inhibition of kinase enzyme activity", "setting": "[5]", "result": -7.85, "unit": "%"}, {"measurement": "Percentage inhibition of kinase enzyme activity", "setting": "[6]", "result": 2.34, "unit": "%"}, {"measurement": "Percentage inhibition of kinase enzyme activity", "setting": "[7]", "result": -0.58, "unit": "%"}, {"measurement": "Percentage inhibition of kinase enzyme activity", "setting": "[8]", "result": -4.67, "unit": "%"}, {"measurement": "Percentage inhibition of kinase enzyme activity", "setting": "[9]", "result": -3.60, "unit": "%"}, {"measurement": "Percentage inhibition of kinase enzyme activity", "setting": "[10]", "result": 12.37, "unit": "%"}, {"measurement": "Percentage inhibition of kinase enzyme activity", "setting": "[11]", "result": -13.73, "unit": "%"}]}, {"smiles": "COc1ccc(F)cc1C(=O)NCc1ccc(-c2nn([C@@H](C)C(F)(F)F)c(N)c2C(N)=O)cc1", "note": "[pirtobrutinib]", "values": [{"measurement": "Percentage inhibition of kinase enzyme activity", "setting": "[1]", "result": -2.78, "unit": "%"}, {"measurement": "Percentage inhibition of kinase enzyme activity", "setting": "[2]", "result": -10.48, "unit": "%"}, {"measurement": "Percentage inhibition of kinase enzyme activity", "setting": "[3]", "result": 2.51, "unit": "%"}, {"measurement": "Percentage inhibition of kinase enzyme activity", "setting": "[4]", "result": 51.77, "unit": "%"}, {"measurement": "Percentage inhibition of kinase enzyme activity", "setting": "[5]", "result": -1.40, "unit": "%"}, {"measurement": "Percentage inhibition of kinase enzyme activity", "setting": "[6]", "result": 27.17, "unit": "%"}, {"measurement": "Percentage inhibition of kinase enzyme activity", "setting": "[7]", "result": 1.20, "unit": "%"}, {"measurement": "Percentage inhibition of kinase enzyme activity", "setting": "[8]", "result": 6.62, "unit": "%"}, {"measurement": "Percentage inhibition of kinase enzyme activity", "setting": "[9]", "result": 4.53, "unit": "%"}, {"measurement": "Percentage inhibition of kinase enzyme activity", "setting": "[10]", "result": 7.34, "unit": "%"}, {"measurement": "Percentage inhibition of kinase enzyme activity", "setting": "[11]", "result": -0.48, "unit": "%"}]}, {"smiles": "C=CC(=O)N1CCC([C@@H]2CCNc3c(C(N)=O)c(-c4ccc(Oc5ccccc5)cc4)nn32)CC1", "note": "[zanubrutinib]", "values": [{"measurement": "Percentage inhibition of kinase enzyme activity", "setting": "[3]", "result": -1.07, "unit": "%"}, {"measurement": "Percentage inhibition of kinase enzyme activity", "setting": "[4]", "result": 18.89, "unit": "%"}, {"measurement": "Percentage inhibition of kinase enzyme activity", "setting": "[7]", "result": 11.33, "unit": "%"}, {"measurement": "Percentage inhibition of kinase enzyme activity", "setting": "[8]", "result": 2.69, "unit": "%"}, {"measurement": "Percentage inhibition of kinase enzyme activity", "setting": "[9]", "result": -0.10, "unit": "%"}]}, {"smiles": "C=CC(=O)N1CCC[C@@H](n2nc(-c3ccc(Oc4ccccc4)cc3)c3c(N)ncnc32)C1", "note": "[ibrutinib]", "values": [{"measurement": "Percentage inhibition of kinase enzyme activity", "setting": "[1]", "result": 6.93, "unit": "%"}, {"measurement": "Percentage inhibition of kinase enzyme activity", "setting": "[2]", "result": -1.03, "unit": "%"}, {"measurement": "Percentage inhibition of kinase enzyme activity", "setting": "[3]", "result": 11.81, "unit": "%"}, {"measurement": "Percentage inhibition of kinase enzyme activity", "setting": "[4]", "result": 87.66, "unit": "%"}, {"measurement": "Percentage inhibition of kinase enzyme activity", "setting": "[5]", "result": -3.87, "unit": "%"}, {"measurement": "Percentage inhibition of kinase enzyme activity", "setting": "[6]", "result": 29.84, "unit": "%"}, {"measurement": "Percentage inhibition of kinase enzyme activity", "setting": "[7]", "result": 1.76, "unit": "%"}, {"measurement": "Percentage inhibition of kinase enzyme activity", "setting": "[8]", "result": 9.51, "unit": "%"}, {"measurement": "Percentage inhibition of kinase enzyme activity", "setting": "[9]", "result": 6.83, "unit": "%"}, {"measurement": "Percentage inhibition of kinase enzyme activity", "setting": "[10]", "result": 19.75, "unit": "%"}, {"measurement": "Percentage inhibition of kinase enzyme activity", "setting": "[11]", "result": 19.28, "unit": "%"}]}]}
